Reference: ChEMBL document CHEMBL1128978, “1-Hydroxy-1,4-dihydroquinoxaline-2,3-diones: Novel antagonists at NMDA receptor glycine sites” (Bioorg Med Chem Lett, 1996)

Test: Electrophysiological assays in Xenopus oocytes expressing cloned NMDA receptor (NR1A/2C)
Assay type: cell-based
Conditions: Rattus norvegicus, Oocyte

Q: For `O=c1[nH]c2cc(Cl)c(Cl)cc2n(O)c1=O`, which IC50 is on record?
A: 80 nM

Q: With `Oc1nc2cc(C(F)(F)F)cc(Br)c2nc1O` as the molecule, how does the IC50 read?
A: 2500 nM

Q: With `O=c1[nH]c2c(Br)cc(C(F)(F)F)cc2n(O)c1=O` as the molecule, how does the IC50 read?
A: 54000 nM

Q: Which IC50 does the source give for `Nc1c(Cl)c(Cl)cc2nc(O)c(O)nc12` here?
A: 93 nM

Q: With `O=c1[nH]c2c(Br)c(Cl)c(Cl)cc2n(O)c1=O` as the molecule, how does the IC50 read?
A: 2700 nM

Q: With `Nc1c(Cl)c(Cl)cc2c1[nH]c(=O)c(=O)n2O` as the molecule, how does the IC50 read?
A: 1800 nM

Q: Which IC50 does the source give for `O=c1[nH]c2c(Cl)cc(Cl)cc2n(O)c1=O` here?
A: 19000 nM

Q: For `Oc1nc2cc(C(F)(F)F)cc(Cl)c2nc1O`, which IC50 is on record?
A: 2100 nM

Q: With `Oc1nc2cc(Cl)cc(Cl)c2nc1O` as the molecule, how does the IC50 read?
A: 280 nM

Q: For `Oc1nc2cc(Br)cc(Br)c2nc1O`, which IC50 is on record?
A: 1300 nM

Q: For `Oc1nc2cc(Cl)c(Cl)c(Br)c2nc1O`, which IC50 is on record?
A: 210 nM

Q: With `O=c1[nH]c2c(Cl)cc(C(F)(F)F)cc2n(O)c1=O` as the molecule, how does the IC50 read?
A: 25000 nM

Q: For `O=c1[nH]c2c(Cl)c(Cl)c(Cl)cc2n(O)c1=O`, which IC50 is on record?
A: 2500 nM

Q: For `O=c1[nH]c2c(Br)cc(Br)cc2n(O)c1=O`, which IC50 is on record?
A: 20000 nM

Q: Which IC50 does the source give for `Oc1nc2cc(Cl)c(Cl)c(Cl)c2nc1O` here?
A: 30 nM

Q: For `Oc1nc2cc(Cl)c(Cl)cc2nc1O` [2,3-DIHYDROXY-6,7-DICHLOROQUINOXALINE], which IC50 is on record?
A: 130 nM
